Source: US11109593B2, “Isoxazolin-5-one derivative and herbicide containing same as active ingredient” (HOKKO CHEMICAL INDUSTRY CO., LTD., priority 2017, dated 2021)

Test system: Echinochloa crus-galli
Experiment: Test Example 1: herbicidal effect test by treatment of rice paddy soil (immediately after seeding)
Type: in vivo
Settings: 120 g/10a active ingredient, dry weight vs untreated area, 14 days after treatment
Experimental: (§1) Herbicidal Effect Test by Treatment of Rice Paddy Soil
(§2) Wagner pots with an area of 1/10000 ares were filled with a paddy soil, and after adding water, a compound fertilizer (N:P:K=17:17:17) was added, followed by soil puddling. Then, Echinochloa crus-galli, broad leaf weeds (Lindernia pyxidaria and Monochoria vaginalis) and Scirpus juncoides, 30 seeds each, were sown in a depth of 0 to 1 cm. Water was poured immediately after seeding, and the water depth was kept at about 3 cm. The subsequent management was conducted in a glass greenhouse. Immediately after that, emulsions prepared using the compounds in Table 3 below according to Formulation Example 5 were diluted with water, and a certain amount of the water-diluted agent solutions were dropped. The converted amount of the applied active ingredient corresponded to 120 g per 10 ares.
(§3) This test was conducted in a double system per one agent solution concentration area, and the herbicidal rates (%) were determined by the following equation (Math. 1) on 14 days after the treatment with the agents. Herbicidal Rate (%)={1-(Average Dry Weight (g) of Plant of Treated Area)/(Average Dry Weight (g) of Plant of Untreated Area)}×100 [Math. 1]
(§4) The compound numbers in Table 3 are the same as those in Table 1 and Table 2 above.

SMILES	Herbicidal rate (%) Echinochloa crus-galli [%]
Cc1c(Cc2ccccc2N(S(=O)(=O)C(F)(F)F)S(=O)(=O)C(F)(F)F)c(=O)on1Cc1ccc(F)cc1F [Compound 1-1026]	100
CCCOC(=O)N(c1ccccc1Cc1c(C)n(C(C)COC)oc1=O)S(=O)(=O)C(F)(F)F (stereo not shown) [Compound 1-634]	90
Cc1c(Cc2ccccc2NS(=O)(=O)C(F)(F)F)c(=O)on1CC(F)(F)c1ccccc1 [Compound 1-220]	90
Cc1c(Cc2ccccc2NS(=O)(=O)C(F)(F)F)c(=O)on1CCOCc1ccccc1 [Compound 1-238]	100
Cc1c(Cc2ccccc2N(S(=O)(=O)C(F)(F)F)S(=O)(=O)C(F)(F)F)c(=O)on1CCc1ccccc1 [Compound 1-1043]	100

Test system: Scirpus juncoides
Experiment: as above
Type: in vivo
Settings: 120 g/10a active ingredient, dry weight vs untreated area, 14 days after treatment
Experimental: as §1, §2, §3, §4

SMILES	Herbicidal rate (%) Scirpus juncoides [%]
Cc1c(Cc2ccccc2N(S(=O)(=O)C(F)(F)F)S(=O)(=O)C(F)(F)F)c(=O)on1Cc1ccc(F)cc1F [Compound 1-1026]	90
CCCOC(=O)N(c1ccccc1Cc1c(C)n(C(C)COC)oc1=O)S(=O)(=O)C(F)(F)F (stereo not shown) [Compound 1-634]	90
Cc1c(Cc2ccccc2NS(=O)(=O)C(F)(F)F)c(=O)on1CC(F)(F)c1ccccc1 [Compound 1-220]	90
Cc1c(Cc2ccccc2NS(=O)(=O)C(F)(F)F)c(=O)on1CCOCc1ccccc1 [Compound 1-238]	80
Cc1c(Cc2ccccc2N(S(=O)(=O)C(F)(F)F)S(=O)(=O)C(F)(F)F)c(=O)on1CCc1ccccc1 [Compound 1-1043]	90

Test system: broad leaf weeds (Lindernia pyxidaria and Monochoria vaginalis)
Experiment: as above
Type: in vivo
Settings: Lindernia pyxidaria, 120 g/10a active ingredient, dry weight vs untreated area, 14 days after treatment
Experimental: as §1, §2, §3, §4

SMILES	Herbicidal rate (%) Lindernia pyxidaria [%]
Cc1c(Cc2ccccc2N(S(=O)(=O)C(F)(F)F)S(=O)(=O)C(F)(F)F)c(=O)on1Cc1ccc(F)cc1F [Compound 1-1026]	100
CCCOC(=O)N(c1ccccc1Cc1c(C)n(C(C)COC)oc1=O)S(=O)(=O)C(F)(F)F (stereo not shown) [Compound 1-634]	90
Cc1c(Cc2ccccc2NS(=O)(=O)C(F)(F)F)c(=O)on1CC(F)(F)c1ccccc1 [Compound 1-220]	100
Cc1c(Cc2ccccc2NS(=O)(=O)C(F)(F)F)c(=O)on1CCOCc1ccccc1 [Compound 1-238]	80
Cc1c(Cc2ccccc2N(S(=O)(=O)C(F)(F)F)S(=O)(=O)C(F)(F)F)c(=O)on1CCc1ccccc1 [Compound 1-1043]	100

Same assay, conditions: Monochoria vaginalis, 120 g/10a active ingredient, dry weight vs untreated area, 14 days after treatment

SMILES	Herbicidal rate (%) Monochoria vaginalis [%]
Cc1c(Cc2ccccc2N(S(=O)(=O)C(F)(F)F)S(=O)(=O)C(F)(F)F)c(=O)on1Cc1ccc(F)cc1F [Compound 1-1026]	100
CCCOC(=O)N(c1ccccc1Cc1c(C)n(C(C)COC)oc1=O)S(=O)(=O)C(F)(F)F (stereo not shown) [Compound 1-634]	90
Cc1c(Cc2ccccc2NS(=O)(=O)C(F)(F)F)c(=O)on1CC(F)(F)c1ccccc1 [Compound 1-220]	100
Cc1c(Cc2ccccc2NS(=O)(=O)C(F)(F)F)c(=O)on1CCOCc1ccccc1 [Compound 1-238]	80
Cc1c(Cc2ccccc2N(S(=O)(=O)C(F)(F)F)S(=O)(=O)C(F)(F)F)c(=O)on1CCc1ccccc1 [Compound 1-1043]	100

Test system: Echinochloa crus-galli
Experiment: Test Example 2: herbicidal effect test by treatment during growing period in paddy rice cultivation (seven days after seeding)
Type: in vivo
Settings: 120 g/10a active ingredient, assessed 14 days after treatment, dry weight vs untreated area
Experimental: as §3
(§5) Herbicidal Effect Test by Treatment During Growing Period in Paddy Rice Cultivation
as §2, with “was mixed,” for “was added,”, “greenhouse. Emulsions” for “greenhouse. Immediately after that, emulsions”, “Table 4” for “Table 3”, “with water seven days after seeding,” for “with water,”, “ares. The test was conducted in a double system per one agent solution concentration area, and the herbicidal rates (%) were determined by the equation (Math. 1) on 14 days after the treatment with the agents. […] The compound numbers in Table 4 are the same as those in Table 1 and Table 2 above.” for “ares.”

SMILES	Herbicidal rate (%) Echinochloa crus-galli [%]
Cc1c(Cc2ccccc2N(S(=O)(=O)C(F)(F)F)S(=O)(=O)C(F)(F)F)c(=O)on1Cc1ccc(F)cc1F [Compound 1-1026]	60
CCCOC(=O)N(c1ccccc1Cc1c(C)n(C(C)COC)oc1=O)S(=O)(=O)C(F)(F)F (stereo not shown) [Compound 1-634]	90
Cc1c(Cc2ccccc2NS(=O)(=O)C(F)(F)F)c(=O)on1CC(F)(F)c1ccccc1 [Compound 1-220]	40
Cc1c(Cc2ccccc2NS(=O)(=O)C(F)(F)F)c(=O)on1CCOCc1ccccc1 [Compound 1-238]	80
Cc1c(Cc2ccccc2N(S(=O)(=O)C(F)(F)F)S(=O)(=O)C(F)(F)F)c(=O)on1CCc1ccccc1 [Compound 1-1043]	90

Test system: Scirpus juncoides
Experiment: as above
Type: in vivo
Settings: 120 g/10a active ingredient, assessed 14 days after treatment, dry weight vs untreated area
Experimental: as §3, §5
as §2, with “was mixed,” for “was added,”, “greenhouse. Emulsions” for “greenhouse. Immediately after that, emulsions”, “Table 4” for “Table 3”, “with water seven days after seeding,” for “with water,”, “ares. The test was conducted in a double system per one agent solution concentration area, and the herbicidal rates (%) were determined by the equation (Math. 1) on 14 days after the treatment with the agents. […] The compound numbers in Table 4 are the same as those in Table 1 and Table 2 above.” for “ares.”

SMILES	Herbicidal rate (%) Scirpus juncoides [%]
Cc1c(Cc2ccccc2N(S(=O)(=O)C(F)(F)F)S(=O)(=O)C(F)(F)F)c(=O)on1Cc1ccc(F)cc1F [Compound 1-1026]	80
CCCOC(=O)N(c1ccccc1Cc1c(C)n(C(C)COC)oc1=O)S(=O)(=O)C(F)(F)F (stereo not shown) [Compound 1-634]	90
Cc1c(Cc2ccccc2NS(=O)(=O)C(F)(F)F)c(=O)on1CC(F)(F)c1ccccc1 [Compound 1-220]	90
Cc1c(Cc2ccccc2NS(=O)(=O)C(F)(F)F)c(=O)on1CCOCc1ccccc1 [Compound 1-238]	80
Cc1c(Cc2ccccc2N(S(=O)(=O)C(F)(F)F)S(=O)(=O)C(F)(F)F)c(=O)on1CCc1ccccc1 [Compound 1-1043]	90

Test system: broad leaf weeds (Lindernia pyxidaria and Monochoria vaginalis)
Experiment: as above
Type: in vivo
Settings: Lindernia pyxidaria, 120 g/10a active ingredient, assessed 14 days after treatment, dry weight vs untreated area
Experimental: as §3, §5
as §2, with “was mixed,” for “was added,”, “greenhouse. Emulsions” for “greenhouse. Immediately after that, emulsions”, “Table 4” for “Table 3”, “with water seven days after seeding,” for “with water,”, “ares. The test was conducted in a double system per one agent solution concentration area, and the herbicidal rates (%) were determined by the equation (Math. 1) on 14 days after the treatment with the agents. […] The compound numbers in Table 4 are the same as those in Table 1 and Table 2 above.” for “ares.”

SMILES	Herbicidal rate (%) Lindernia pyxidaria [%]
Cc1c(Cc2ccccc2N(S(=O)(=O)C(F)(F)F)S(=O)(=O)C(F)(F)F)c(=O)on1Cc1ccc(F)cc1F [Compound 1-1026]	100
CCCOC(=O)N(c1ccccc1Cc1c(C)n(C(C)COC)oc1=O)S(=O)(=O)C(F)(F)F (stereo not shown) [Compound 1-634]	90
Cc1c(Cc2ccccc2NS(=O)(=O)C(F)(F)F)c(=O)on1CC(F)(F)c1ccccc1 [Compound 1-220]	100
Cc1c(Cc2ccccc2NS(=O)(=O)C(F)(F)F)c(=O)on1CCOCc1ccccc1 [Compound 1-238]	40
Cc1c(Cc2ccccc2N(S(=O)(=O)C(F)(F)F)S(=O)(=O)C(F)(F)F)c(=O)on1CCc1ccccc1 [Compound 1-1043]	100

Same assay, conditions: Monochoria vaginalis, 120 g/10a active ingredient, assessed 14 days after treatment, dry weight vs untreated area

SMILES	Herbicidal rate (%) Monochoria vaginalis [%]
Cc1c(Cc2ccccc2N(S(=O)(=O)C(F)(F)F)S(=O)(=O)C(F)(F)F)c(=O)on1Cc1ccc(F)cc1F [Compound 1-1026]	90
CCCOC(=O)N(c1ccccc1Cc1c(C)n(C(C)COC)oc1=O)S(=O)(=O)C(F)(F)F (stereo not shown) [Compound 1-634]	90
Cc1c(Cc2ccccc2NS(=O)(=O)C(F)(F)F)c(=O)on1CC(F)(F)c1ccccc1 [Compound 1-220]	90
Cc1c(Cc2ccccc2NS(=O)(=O)C(F)(F)F)c(=O)on1CCOCc1ccccc1 [Compound 1-238]	80
Cc1c(Cc2ccccc2N(S(=O)(=O)C(F)(F)F)S(=O)(=O)C(F)(F)F)c(=O)on1CCc1ccccc1 [Compound 1-1043]	100
